{
  "source": "patent US12110293B2",
  "about": "“Substituted triazolo quinoxaline derivatives” (GRÜNENTHAL GMBH, priority 2018, dated 2024)",
  "biological_target": "T1, glucocorticoid receptor (Homo sapiens, UniProt P04150)",
  "T1 construct": "expressed in transfected cells",
  "T1 sequence (P04150 524-758 limits assumed)": "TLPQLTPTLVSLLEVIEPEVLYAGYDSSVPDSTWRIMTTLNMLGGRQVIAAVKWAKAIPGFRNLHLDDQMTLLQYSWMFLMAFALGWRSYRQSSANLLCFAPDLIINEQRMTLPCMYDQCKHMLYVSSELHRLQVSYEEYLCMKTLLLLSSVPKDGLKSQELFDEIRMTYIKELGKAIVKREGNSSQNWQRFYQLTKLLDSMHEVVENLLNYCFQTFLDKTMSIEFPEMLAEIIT",
  "experiment": "Agonistic mode of action on the glucocorticoid receptor (CHO-Gal4/GR luciferase reporter cell line)",
  "format": "cell-based",
  "details": "range class observed in the agonistic assay or the antagonistic assay (CHO-Gal4/GR reporter cells); table does not say which mode applies per example",
  "how_it_was_run": "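CHO cells stably carrying GAL4 DBD–GR ligand-binding-domain fusion and GAL4-UAS firefly luciferase reporter, 5000 cells/well grown 24 h, then compounds added in Opti-MEM at 8 half-log concentrations from 10 μM to 0.003 μM (0.5% DMSO), quadruplicates. Agonist-induced luminescence read on FLIPR Tetra; EC50 calculated.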",
  "data": [
    {"molecule": "Cc1nnc2n1-c1c(cc(F)c(-c3cc(F)cc4c3cnn4S(C)(=O)=O)c1C(F)(F)F)NC2(C)C", "note": "[Example 454, 7-Fluoro-8-(6-fluoro-1-methylsulfonyl-1H-indazol-4-yl)-1,4,4-trimethyl-9-(trifluoromethyl)-5H-[1,2,4]triazolo[4,3-a]quinoxaline]", "values": [
      {"measurement": "IC50 or EC50 (agonist or antagonist mode not specified)", "value": "0.1 to 1", "unit": "µM"}
    ]},
    {"molecule": "COCCn1ccc2c(-c3c(C)cc4c(c3C)-n3c(C)nnc3C(C)(C)N4)cccc21", "note": "[Example 331, 8-[1-(2-Methoxy-ethyl)-1H-indol-4-yl]-1,4,4,7,9-pentamethyl-5H-[1,2,4]triazolo[4,3-a]quinoxaline]", "values": [
      {"measurement": "IC50 or EC50 (agonist or antagonist mode not specified)", "value": "1 to 15", "unit": "µM"}
    ]},
    {"molecule": "Cc1nnc2n1-c1c(cc(OC(F)F)c(-c3cccc4c3ccn4CC(F)F)c1F)NC2(C)C", "note": "[Example 393, 8-[1-(2,2-Difluoro-ethyl)-1H-indol-4-yl]-7-(difluoro-methoxy)-9-fluoro-1,4,4-trimethyl-5H-[1,2,4]triazolo [4,3-a]quinoxaline]", "values": [
      {"measurement": "IC50 or EC50 (agonist or antagonist mode not specified)", "value": "1 to 15", "unit": "µM"}
    ]},
    {"molecule": "Cc1c[nH]c2c(-c3c(F)cc4c(c3F)-n3c(Cc5ccccn5)nnc3C(C)(C)N4)cccc12", "note": "[Example 75, 7,9-Difluoro-4,4-dimethyl-8-(3-methyl-1H-indol-7-yl)-1-(pyridin-2-yl-methyl)-5H-[1,2,4]triazolo[4,3-a]quinoxaline]", "values": [
      {"measurement": "IC50 or EC50 (agonist or antagonist mode not specified)", "value": "< 0.1", "unit": "µM"}
    ]},
    {"molecule": "COCCn1ccc2c(-c3c(F)cc4c(c3OC)-n3c(C)nnc3C(C)(C)N4)cccc21", "note": "[Example 281, 7-Fluoro-9-methoxy-8-[1-(2-methoxy-ethyl)-1H-indol-4-yl]-1,4,4-trimethyl-5H-[1,2,4]triazolo[4,3-a]quinoxaline]", "values": [
      {"measurement": "IC50 or EC50 (agonist or antagonist mode not specified)", "value": "0.1 to 1", "unit": "µM"}
    ]},
    {"molecule": "Cc1cc(-c2c(F)cc3c(c2C(F)F)-n2c(C)nnc2C(C)(C)N3)c2ccn(S(C)(=O)=O)c2c1", "note": "[Example 478, 9-(Difluoro-methyl)-7-fluoro-1,4,4-trimethyl-8-(6-methyl-1-methylsulfonyl-1H-indol-4-yl)-5H-[1,2,4]triazolo[4,3-a]quinoxaline]", "values": [
      {"measurement": "IC50 or EC50 (agonist or antagonist mode not specified)", "value": "0.1 to 1", "unit": "µM"}
    ]},
    {"molecule": "Cc1nnc2n1-c1c(cc(F)c(-c3cc(F)cc4c3cnn4S(C)(=O)=O)c1F)NC2(C)C", "note": "[Example 276, 7,9-Difluoro-8-(6-fluoro-1-methylsulfonyl-1H-indazol-4-yl)-1,4,4-trimethyl-5H-[1,2,4]triazolo [4,3-a]quinoxaline]", "values": [
      {"measurement": "IC50 or EC50 (agonist or antagonist mode not specified)", "value": "0.1 to 1", "unit": "µM"}
    ]},
    {"molecule": "Cc1c(-c2ccc(F)c3[nH]ccc23)c(F)cc2c1-n1c(C)nnc1C(C)(C)N2", "note": "[Example 504, 7-Fluoro-8-(7-fluoro-1H-indol-4-yl)-1,4,4,9-tetramethyl-5H-[1,2,4]triazolo[4,3-a]quinoxaline]", "values": [
      {"measurement": "IC50 or EC50 (agonist or antagonist mode not specified)", "value": "0.1 to 1", "unit": "µM"}
    ]},
    {"molecule": "Cc1nnc2n1-c1c(cc(F)c(-c3cc(F)cc4c3cnn4CC(F)F)c1C(F)F)NC2(C)C", "note": "[Example 472, 8-[1-(2,2-Difluoro-ethyl)-6-fluoro-1H-indazol-4-yl]-9-(difluoro-methyl)-7-fluoro-1,4,4-trimethyl-5H-[1,2,4]triazolo[4,3-a]quinoxaline]", "values": [
      {"measurement": "IC50 or EC50 (agonist or antagonist mode not specified)", "value": "< 0.1", "unit": "µM"}
    ]},
    {"molecule": "COc1cc2c(c(F)c1-c1cccc3c1ccn3S(C)(=O)=O)-n1c(C)nnc1C(C)(C)N2", "note": "[Example 263, 9-Fluoro-7-methoxy-1,4,4-trimethyl-8-(1-methylsulfonyl-1H-indol-4-yl)-5H-[1,2,4]triazolo[4,3-a]quinoxaline]", "values": [
      {"measurement": "IC50 or EC50 (agonist or antagonist mode not specified)", "value": "1 to 15", "unit": "µM"}
    ]},
    {"molecule": "Cc1nnc2n1-c1c(cc(F)c(-c3cccc4[nH]ncc34)c1F)NC2(C)C", "note": "[Example 232, 7,9-Difluoro-8-(1H-indazol-4-yl)-1,4,4-trimethyl-5H-[1,2,4]triazolo[4,3-a]quinoxaline]", "values": [
      {"measurement": "IC50 or EC50 (agonist or antagonist mode not specified)", "value": "0.1 to 1", "unit": "µM"}
    ]},
    {"molecule": "Cc1c[nH]c2c(-c3c(F)cc4c(c3F)-n3c(Cc5ccccn5)nnc3C(C)(C)N4)cc(F)cc12", "note": "[Example 74, 7,9-Difluoro-8-(5-fluoro-3-methyl-1H-indol-7-yl)-4,4-dimethyl-1-(pyridin-2-yl-methyl)-5H-[1,2,4]triazolo[4,3-a]quinoxaline]", "values": [
      {"measurement": "IC50 or EC50 (agonist or antagonist mode not specified)", "value": "< 0.1", "unit": "µM"}
    ]},
    {"molecule": "Cc1nnc2n1-c1c(cc(F)c(-c3cc(F)cc4c3cnn4CC(F)F)c1F)NC2(C)C", "note": "[Example 489, 8-[1-(2,2-Difluoro-ethyl)-6-fluoro-1H-indazol-4-yl]-7,9-difluoro-1,4,4-trimethyl-5H-[1,2,4]triazolo [4,3-a]quinoxaline]", "values": [
      {"measurement": "IC50 or EC50 (agonist or antagonist mode not specified)", "value": "< 0.1", "unit": "µM"}
    ]},
    {"molecule": "Cc1nnc2n1-c1c(cc(F)c(-c3ccc(Cl)c4[nH]ccc34)c1F)NC2(C)C", "note": "[Example 529, 8-(7-Chloro-1H-indol-4-yl)-7,9-difluoro-1,4,4-trimethyl-5H-[1,2,4]triazolo[4,3-a]quinoxaline]", "values": [
      {"measurement": "IC50 or EC50 (agonist or antagonist mode not specified)", "value": "0.1 to 1", "unit": "µM"}
    ]},
    {"molecule": "Cc1cc2c(c(F)c1-c1cc(F)cc3c1ccn3S(C)(=O)=O)-n1c(C)nnc1C(C)(C)N2", "note": "[Example 332, 9-Fluoro-8-(6-fluoro-1-methylsulfonyl-1H-indol-4-yl)-1,4,4,7-tetramethyl-5H-[1,2,4] triazolo[4,3-a]quinoxaline]", "values": [
      {"measurement": "IC50 or EC50 (agonist or antagonist mode not specified)", "value": "1 to 15", "unit": "µM"}
    ]},
    {"molecule": "CCS(=O)(=O)n1ccc2c(-c3c(OC)cc4c(c3C(F)(F)F)-n3c(C)nnc3C(C)(C)N4)cccc21", "note": "[Example 371, 8-[1-(Ethylsulfonyl)-1H-indol-4-yl]-7-methoxy-1,4,4-trimethyl-9-(trifluoromethyl)-5H-[1,2,4]triazolo[4,3-a]quinoxaline]", "values": [
      {"measurement": "IC50 or EC50 (agonist or antagonist mode not specified)", "value": "0.1 to 1", "unit": "µM"}
    ]},
    {"molecule": "COCCn1ccc2c(-c3c(Cl)cc4c(c3F)-n3c(C)nnc3C(C)(C)N4)cccc21", "note": "[Example 280, 7-Chloro-9-fluoro-8-[1-(2-methoxy-ethyl)-1H-indol-4-yl]-1,4,4-trimethyl-5H-[1,2,4]triazolo[4,3-a]quinoxaline]", "values": [
      {"measurement": "IC50 or EC50 (agonist or antagonist mode not specified)", "value": "1 to 15", "unit": "µM"}
    ]},
    {"molecule": "COc1c(-c2cccc3[nH]ccc23)c(F)cc2c1-n1c(C)nnc1C(C)(C)N2", "note": "[Example 286, 7-Fluoro-8-(1H-indol-4-yl)-9-methoxy-1,4,4-trimethyl-5H-[1,2,4]triazolo[4,3-a]quinoxaline]", "values": [
      {"measurement": "IC50 or EC50 (agonist or antagonist mode not specified)", "value": "0.1 to 1", "unit": "µM"}
    ]},
    {"molecule": "Cc1c(-c2cccc3c2ccn3S(C)(=O)=O)c(OC(F)(F)F)cc2c1-n1c(C)nnc1C(C)(C)N2", "note": "[Example 465, 1,4,4,9-Tetramethyl-8-(1-methylsulfonyl-1H-indol-4-yl)-7-(trifluoromethyloxy)-5H-[1,2,4]triazolo[4,3-a]quinoxaline]", "values": [
      {"measurement": "IC50 or EC50 (agonist or antagonist mode not specified)", "value": "< 0.1", "unit": "µM"}
    ]},
    {"molecule": "Cc1nnc2n1-c1c(cc(F)c(-c3cc(F)cc4c3ccn4S(=O)(=O)C3CC3)c1F)NC2(C)C", "note": "[Example 19, 8-(1-(cyclopropylsulfonyl)-6-fluoro-1H-indol-4-yl)-7,9-difluoro-1,4,4-trimethyl-4,5-dihydro-[1,2,4]triazolo[4,3-a]quinoxaline]", "values": [
      {"measurement": "IC50 or EC50 (agonist or antagonist mode not specified)", "value": "0.1 to 1", "unit": "µM"}
    ]},
    {"molecule": "COc1cc2c(c(F)c1-c1cc(F)cc3c1ccn3S(C)(=O)=O)-n1c(C)nnc1C(C)(C)N2", "note": "[Example 255, 9-Fluoro-8-(6-fluoro-1-methylsulfonyl-1H-indol-4-yl)-7-methoxy-1,4,4-trimethyl-5H-[1,2,4]triazolo[4,3-a]quinoxaline]", "values": [
      {"measurement": "IC50 or EC50 (agonist or antagonist mode not specified)", "value": "1 to 15", "unit": "µM"}
    ]},
    {"molecule": "COCCn1ncc2c(-c3c(OC(F)(F)F)cc4c(c3C)-n3c(C)nnc3C(C)(C)N4)cc(F)cc21", "note": "[Example 480, 8-[6-Fluoro-1-(2-methoxy-ethyl)-1H-indazol-4-yl]-1,4,4,9-tetramethyl-7-(trifluoromethyloxy)-5H-[1,2,4]triazolo[4,3-a]quinoxaline]", "values": [
      {"measurement": "IC50 or EC50 (agonist or antagonist mode not specified)", "value": "0.1 to 1", "unit": "µM"}
    ]}
  ]
}
